# Measurements as given in patent US12037327B2, “Compounds and methods targeting GPER for treatment of diseases associated with calcium” (Saint Louis University, priority 2018, dated 2024).
# “Also recorded” adds a separate entry of the source.
# Columns and labels:
# ERβ = molecular target: T1, ERβ (Homo sapiens, UniProt Q92731); experiment: ERβ PolarScreen fluorescence polarization competitor assay; format: binding; settings: duplicate
# T1 construct: purchased Invitrogen (Carlsbad, CA)
# Description: (§1) FIGS. 3A & 3B show fluorescence polarization studies performed on classical estrogen receptors, ERα and ERβ, to determine off-target binding. Studies were performed in duplicate. […] Overall, it appears that compound 1 binds greater to ERβ than ERα and compound 2 binds to ERα but not ERβ.
# (§2) The ERα and ERβ PolarScreen™ Competitor Assays by Invitrogen (Carlsbad, CA) were purchased and utilized to determine binding to the classical nuclear esetrogen recetors, ERα and ERβ. The concentrations of the ERα and ERβ enzyme varied between the two assays. A 4× sample of ERα was prepared for a final concentration of 75 nM. Conversely, a 4× sample of ERβ was prepared for a final concentration of 23 nM within the assay. For both ERα and ERβ a 4× aliquot of Fluoromone was prepared for a final assay concentration of 4.5 nM. Despite the differences in concentration of ERα and ERβ, the binding assay protocol for the two different enzymes remained the same. Drug dilutions were prepared for a 2× dilution in the ER specific buffer that was provided within the assay kit. In addition to the drug dilutions a 2× aliquot of Fluoromone was prepared by adding 10 uL of 4× with 10 uL of ER specific buffer. A 2× dilution of enzyme and fluorophore was achieved by adding equal portions of each to each other. […] The plate was incubated at RT for 2 hours before being read with λex 485 nm and λem 535 nm.
# GPER [1] = molecular target: T2, GPER (Homo sapiens, UniProt Q99527); experiment: calcium mobilization after siRNA knock down of GPER in HL-60 cells; format: cell-based; settings: HL-60 cells not treated with siRNA; 1 μM
# T2 construct: siRNA was used to knock-down expression of GPER; endogenous in cells; host or cells: HL-60 (human myelocytic leukemia) cells
# ERα = molecular target: T3, ERα (Homo sapiens, UniProt P03372); experiment: ERα PolarScreen fluorescence polarization competitor assay; format: binding; settings: duplicate
# T3 construct: purchased Invitrogen (Carlsbad, CA)
# T3 sequence (P03372 1-595): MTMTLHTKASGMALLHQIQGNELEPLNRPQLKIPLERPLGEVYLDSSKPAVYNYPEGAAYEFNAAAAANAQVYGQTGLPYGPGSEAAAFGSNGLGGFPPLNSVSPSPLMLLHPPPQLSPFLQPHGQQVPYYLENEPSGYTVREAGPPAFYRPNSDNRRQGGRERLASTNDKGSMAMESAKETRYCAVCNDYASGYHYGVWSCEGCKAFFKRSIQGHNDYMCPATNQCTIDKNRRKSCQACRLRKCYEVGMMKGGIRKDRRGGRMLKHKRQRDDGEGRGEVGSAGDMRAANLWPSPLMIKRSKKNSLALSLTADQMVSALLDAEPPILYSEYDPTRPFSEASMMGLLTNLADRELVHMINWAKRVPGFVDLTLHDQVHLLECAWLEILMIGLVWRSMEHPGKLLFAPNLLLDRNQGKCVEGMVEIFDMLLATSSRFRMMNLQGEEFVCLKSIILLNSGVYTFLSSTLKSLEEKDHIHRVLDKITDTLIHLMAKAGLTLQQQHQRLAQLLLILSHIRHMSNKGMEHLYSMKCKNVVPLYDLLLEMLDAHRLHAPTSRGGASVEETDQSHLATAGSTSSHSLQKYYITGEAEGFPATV
# Description: as §1, §2
# [2] = molecular target: T4, G protein-coupled estrogen receptor (GPER) (Homo sapiens, UniProt Q99527); experiment: calcium mobilization assay in HL-60 cells (Indo-1AM); format: cell-based; settings: triplicate runs on triplicate plates, read-out: EC50 (Ca^2+)
# T4 construct: siRNA was used to knock-down expression of GPER; endogenous in cells; host or cells: HL-60 (human myelocytic leukemia) cells
# Description: For the calcium mobilization studies, Human Myelocytic Leukemia (HL-60) cells were grown in phenol red free media containing 10% activated fetal bovine serum (FBS), 1% Pen-Strep, and 1% Glutamax. Cells were grown to no more than 1×10^6 cells/mL to prevent differentiation before being split. Prior to assay cells were transferred to phenol red free media containing charcoal-stripped FBS. On the day of the assay cells were centrifuged down at 16.4 G for 5 minutes and washed with 50:1 HBSS/HEPES. Cells were resuspended at 1×10^7 cells/mL in 50:1 HBSS/HEPES. To the resuspended cells, […] pluronic acid and 5 uM of fluorescent calcium indicator, Indo-1AM, were added. The dye solution was incubated for 0.5 hrs at room temperature with rocking. After 30 minutes cells were spun down, and resuspended in 50:1 HBSS/HEPES. Cells were placed on ice for at least 5 minutes and then resuspended in 8.5 mL of 50:1 HBSS/HEPES for agonism assays. For agonism assays 160 μL of cell suspension were added to a 96-well plate and were incubated at […] for 20 minutes in a FlexStation® 3 plate reader (Molecular Devices). Inside the plate reader, 40 μL of agonist were added to each well and excited with 350 nm and read at emissions of 405 nm and 490 nm.
# (§3) Calcium mobilization signal was assessed with the use of 0.1% pluronic acid and 5 μM Indo-1AM, a ratiometric dye. The EC50 values were determined based upon triplicate runs on triplicate plates. […] Cyclic AMP formation through the Gi/o-pathway was monitored utilizing a homogenous time-resolved fluorescence assay purchased from CisBio. A triplicate was performed and an EC50 value was calculated. […] The EC50 values were determined based upon triplicate runs on a triplicate plates.
# [3] = molecular target: T4, G protein-coupled estrogen receptor (GPER); experiment: HTRF cAMP formation assay in HL-60 cells; format: cell-based; settings: values with * unexplained
# Description: For cAMP formation studies to determine potentcy, a homogeneous time resolved fluorescence (HTRF®) components for cAMP was purchased by CisBio (Bedford, MA). HL-60 cells were grown in 10% charcoal-stripped RPMI media for 72 hours prior to assays. Cells were centrifuged and counted with a hemocytometer from Hausser Scientific (Horsham, PA). The total number of cells needed to complete the assay was determined based upon 8,000 cells/well. The determined number of cells was diluted in 5:1 (5×) stimulation buffer contain 500 μM of 3-isobutyl-1-methylxanthine (IBMX) (Sigma Aldrich, Saint Louis, MO). To an HTRF 96-well low volume white plate from CisBio, 2 μL of (5×) agonist was added to the designated wells, followed by 8 μL of col cell suspension. Two controls were run during the experiment to establish basal cAMP formation and […] cAMP with the use of 20 μM forskolin. Cells were covered with a clear plastic film and incubated at 37° C. for 15 mins. During the 15 minutes incubation a 4:1 solution of lysis buffer to dye was prepared individually. After the 15 minute incubation 5 μL of lysis buffer/cAMP-d2 (acceptor) and 5 μL of lysis buffer/monocolonal anti-cAMP Eu3^+ cryptate (donor) were added to all wells. Once added, the plate was sealed, covered with aluminum foil, and incubated at room temperature for 30 mins. After the allotted time cells were read using Flexstation3 and with λex 314 nm and λem 665 nm/λem 620. Antagonism assay format varied slightly. […] To the plate, 2 μL of (5×) antagonist were added dose wise followed by the addition of 6 μL of cold cell suspension to all wells. Controls from the agonism assay remained the same in the antagonism assay. Cells and antagonists were incubated for 20 minutes at 37° C. […] Similar to the agonism assay a 4:1 ratio of lysis buffer to donor/acceptor were prepared. Following the previous incubation period, 5 μL of lysis buffer/cAMP-d2 (acceptor) and 5 μL of lysis buffer/monocolonal anti-cAMP Eu3^+ cryptate (donor) were added to all wells. Cells were allowed to equilibrate at room temperature for 30 minutes before being read at λex 314 nm and λem 665 nm/λem 620.
# as §3
# GPER [4] = molecular target: T2, GPER; experiment: cAMP competition study with selective GPER antagonist in HL-60 cells; format: cell-based; settings: EC50 of G-36 plus 1 μM agonist, compared to agonist alone at 1 μM
# Description: In cAMP competition studies HL-60 cells were grown in 10% charcoal-stripped RPMI media for 72 hours prior to assays. Cells were centrifuged and counted with a hemocytometer from Hausser Scientific (Horsham, PA). The total number of cells needed to complete the assay was determined based upon 8,000 cells/well. The determined number of cells was diluted in 5:1 (5×) stimulation buffer contain 500 μM of 3-isobutyl-1-methylxanthine (IBMX) (Sigma Aldrich, Saint Louis, MO). […] Following the incubation period, 2 μL of various concentrations of compound (5×) were added. […] The plate was sealed and incubated at 37° C. for 10 minutes. After 10 minutes a 4:1 ratio of lysis buffer to donor/acceptor were individually prepared and 5 μL of lysis buffer/cAMP-d2 (acceptor) and 5 μL of lysis buffer/monocolonal anti-cAMP Eu3+ cryptate (donor) were added to all wells. The assay plate was sealed and incubated at room temperature for 30 minutes before being read at λex 314 nm and λem 665 nm/λem 620.
# GPER [5] = molecular target: T2, GPER; experiment: calcium mobilization assay, agonists tested against EC50 of GPER antagonist G-36; format: cell-based; settings: for change in calcium efflux in response to G-36: agonist at 100 nM against EC50 of G-36, normalized; for calcium signal when antagonized with G-36: concentration not given
# Description: Each signal was normalized to the baseline signaling of G-36 and the maximum signal achieved by the specific agonist. Results are shown at 100 nM.
# Calcium mobilization signal was assessed with the use of 0.1% pluronic acid and 5 μM Indo-1AM, a ratiometric dye. The EC50 values were determined based upon triplicate runs on triplicate plates. […] Cyclic AMP formation through the Gi/o-pathway was monitored utilizing a homogenous time-resolved fluorescence assay purchased from CisBio. A triplicate was performed and an EC50 value was calculated. […] The EC50 values were determined based upon triplicate runs on a triplicate plates. To confirm that calcium efflux originated from activation of the G protein-coupled estrogen receptor (GPER), a known selective antagonist, G-36 was used to antagonize the signal. […] Additional data can be found in FIG. 9. […] Without wishing to be bound by any theory, it is believed that within the new functionalization of the scaffold the lone pair on the oxygen of furfuran ring system and the nitrogen on pyridinyl ring system work to activate the receptor. […] Based upon neurite outgrowth studies and without wishing to be bound by any theory, it is believed that the compounds may aid in the elongation and connectivity of neurons. This has implication in a variety of neurodegenerative diseases, such as Alzheimer's disease and Parkinson's disease, but also psychiatric illnesses including Austism and Schizophrenia.
# [6] = tested on: E18 embryonic rat cortical neurons; experiment: neurite outgrowth in E18 embryonic rat neurons; format: cell-based; settings: for neurite outgrowth with GPER antagonist G-15: 100 nM agonist plus 100 nM G-15; for neurite outgrowth: 100 nM agonist, 72 hours, compared to vehicle control
# T1 sequence (Q92731 whole entry): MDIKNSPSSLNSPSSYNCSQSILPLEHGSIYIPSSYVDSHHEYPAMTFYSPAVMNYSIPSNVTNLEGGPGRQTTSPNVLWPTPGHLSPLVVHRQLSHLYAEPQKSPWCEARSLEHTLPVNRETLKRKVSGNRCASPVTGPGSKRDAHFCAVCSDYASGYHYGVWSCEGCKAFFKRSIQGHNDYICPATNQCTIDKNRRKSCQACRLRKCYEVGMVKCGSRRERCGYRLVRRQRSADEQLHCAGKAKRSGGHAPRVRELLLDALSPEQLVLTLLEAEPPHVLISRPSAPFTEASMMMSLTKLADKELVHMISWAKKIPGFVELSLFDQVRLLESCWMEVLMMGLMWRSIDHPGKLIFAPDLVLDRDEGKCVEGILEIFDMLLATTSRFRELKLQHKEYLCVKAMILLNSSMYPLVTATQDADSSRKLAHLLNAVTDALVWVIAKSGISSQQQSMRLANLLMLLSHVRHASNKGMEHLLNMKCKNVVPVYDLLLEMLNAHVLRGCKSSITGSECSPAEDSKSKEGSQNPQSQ
# T4 sequence (Q99527 whole entry): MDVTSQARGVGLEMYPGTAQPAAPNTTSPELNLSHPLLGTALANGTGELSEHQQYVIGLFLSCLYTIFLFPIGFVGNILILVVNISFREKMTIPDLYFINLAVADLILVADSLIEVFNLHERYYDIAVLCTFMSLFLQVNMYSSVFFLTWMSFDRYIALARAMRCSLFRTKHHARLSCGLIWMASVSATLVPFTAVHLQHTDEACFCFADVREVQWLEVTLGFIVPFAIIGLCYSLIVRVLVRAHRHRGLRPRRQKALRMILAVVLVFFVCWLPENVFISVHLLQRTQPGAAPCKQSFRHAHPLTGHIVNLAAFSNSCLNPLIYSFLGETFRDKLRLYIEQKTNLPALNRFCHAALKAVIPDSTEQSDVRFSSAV
# T2 sequence (Q99527 whole entry): as above
"calcium compared to the vehicle control, no siRNA (GPER [1])",EC50 [2],EC50 [3],activation of adenylate cyclase and cAMP formation when challenged against G-36 (GPER [4]),change in calcium efflux in response to G-36 (GPER [5]),calcium signal when antagonized with G-36 (GPER [5]),Compound,binding to ERβ (ERβ),binding to ERα (ERα),neurite outgrowth with GPER antagonist G-15 [6],neurite outgrowth [6]
no statically significant difference,1.3 ± 0.322 µM,1.59 µM,statistically significant reduction,significant increase,–,CC(C)c1ccc(NCc2ccc(CO)o2)c(C2CCCCC2)c1 [Compound 1],exhibit binding; also recorded: appeared to show binding,exhibit binding; also recorded: significant binding,–,–
no statically significant difference,0.699 ± 0.085 µM,1.19 µM,statistically significant reduction,significant increase,reduced to basal response,CC(C)c1ccc(NCc2ccoc2)c(C2CCCCC2)c1 [Compound 2],exhibit binding; also recorded: binding trend for compound 2 was less consistent,exhibit binding; also recorded: significant binding,reduction in signal,statistically significant increase
–,0.0944 ± 0.0118 µM,0.948 ± 0.272 µM,–,significant reduction,–,CC(C)c1ccc(NCc2ccc(C3OCCO3)o2)c(C2CCCCC2)c1 [Compound 3],–,–,–,–
–,0.0387 ± 0.0129 µM,0.29 ± 0.058 µM,–,significant reduction,–,CC(C)c1ccc(NCc2ccc(C3CCCCO3)o2)c(C2CCCCC2)c1 (centres unmarked) [Compound 4],–,–,–,–
–,0.0508 ± 0.00581 µM,0.389 ± 0.0616 µM,–,statistically significant decrease,reduced to basal response,CCOCc1ccc(CNc2ccc(C(C)C)cc2C2CCCCC2)o1 [Compound 5],–,–,reduction in signal,statistically significant increase
–,0.0521 ± 0.0121 µM,1.25 ± 0.304 µM,–,–,–,COc1ccc(CNc2ccc(C(C)C)cc2C2CCCCC2)cn1 [Compound 6],–,–,–,–
–,0.0601 ± 0.0182 µM,0.83 ± 0.273 µM,–,statistically significant decrease,reduced to basal response,COCc1ccc(CNc2ccc(C(C)C)cc2C2CCCCC2)o1 [Compound 7],–,–,–,–
–,–,–,–,–,–,CC(C)c1ccc(NCc2ccoc2)c(C2CCCCC2)c1 [Compound 26],–,–,significantly diminished,statistically significant increase
–,–,–,–,–,–,CCOCc1ccc(CNc2ccc(C(C)C)cc2C2CCCCC2)o1 [Compound 37],–,–,significantly diminished,statistically significant increase
–,–,–,–,–,–,"CC(=O)c1ccc2c(c1)C1C=CCC1C(c1cc3c(cc1Br)OCO3)N2 (centres unmarked) [Compound G-1, reference compound]",–,–,reduction in signal,statistically significant increase
